The text below walks through data of US11976075B2, “Inhibitors of the MYST family of lysine acetyl transferases” (Isosterix, Inc., priority 2022, dated 2024).

For orientation: IC50 means the concentration that inhibits the measured activity by half.

T1 sequence (Q92794 488-778): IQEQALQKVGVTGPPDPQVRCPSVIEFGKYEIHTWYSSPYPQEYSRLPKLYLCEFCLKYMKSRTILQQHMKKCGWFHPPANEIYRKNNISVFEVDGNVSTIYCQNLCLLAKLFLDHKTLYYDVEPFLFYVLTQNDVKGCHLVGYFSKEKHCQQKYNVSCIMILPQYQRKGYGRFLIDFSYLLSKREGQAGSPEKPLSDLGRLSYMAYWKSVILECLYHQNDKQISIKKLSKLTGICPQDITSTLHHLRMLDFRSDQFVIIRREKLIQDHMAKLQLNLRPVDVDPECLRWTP

The test addresses T1, Recombinant KAT6A/MOZ (488-778) protein (Homo sapiens, UniProt Q92794).
T1 construct: Recombinant KAT6A/MOZ (488-778) protein (Active motif, Catalog #81223); purchased Active Motif 81223
Description: Kat6a AlphaLISA Inhibition Screening Assay. It counts as biochemical. Conditions: 60′ pre-incubation; Table 3; read-out: Kat6A Biochemical assay: IC50. Summed up:
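Recombinant KAT6A (488-778), 25 nM, was preincubated with compound (10-point dose response) for 60 or 10 min. It then reacted 120 min at room temperature with 200 nM biotin-H3(1-21) peptide and 400 nM acetyl-CoA, pH 8.0, with 330 nM TSA present. Acetylation was detected by AlphaLISA (anti-acetyl-lysine acceptor, streptavidin donor beads).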
Regarding `C=CS(=O)(=O)NCC(=O)NCc1cnn(Cc2cc(OC)c3c(NS(=O)(=O)c4cc(CC)ccc4OC)noc3c2)c1` [compound 93, N-((1-((3-((5-ethyl-2-methoxyphenyl)sulfonamido)-4-methoxybenzo[d]isoxazol-6-yl)methyl)-1H-pyrazol-4-yl)methyl)-2-(vinylsulfonamido) acetamide], the IC50 was no more than 10 µM.

Consider `C#CC(=O)NCCNC(=O)c1cnn(Cc2cc(OC)c3c(NS(=O)(=O)c4cc(CC)ccc4OC)noc3c2)c1` [compound 94, 1-((3-((5-ethyl-2-methoxyphenyl)sulfonamido)-4-methoxybenzo[d]isoxazol-6-yl)methyl)-N-(2-propiolamidoethyl)-1H-pyrazole-4-carboxamide], for which the IC50 is no more than 10 µM.

Turning to `C#CC(=O)N1CCN(C(=O)c2cnn(Cc3cc(OC)c4c(NS(=O)(=O)c5cc(CC)ccc5OC)noc4c3)c2)CC1` [compound 95, 5-ethyl-2-methoxy-N-(4-methoxy-6-((4-(4-propioloylpiperazine-1-carbonyl)-1H-pyrazol-1-yl)methyl)benzo[d]isoxazol-3-yl)benzenesulfonamide], the IC50 was no more than 10 µM.

On to `C#CC(=O)N1CCN(c2cccc(-c3cc(OC)c4c(NS(=O)(=O)c5c(OC)cccc5OC)noc4c3)n2)CC1` [compound 96, 2,6-dimethoxy-N-(4-methoxy-6-(6-(4-propioloylpiperazin-1-yl)pyridin-2-yl)benzo[d]isoxazol-3-yl)benzenesulfonamide], for which the concentration for half-maximal inhibition (IC50) is no more than 10 µM.

Take `C#CC(=O)N1CCN(c2nc(-c3cc(OC)c4c(NS(=O)(=O)c5c(OC)cccc5OC)noc4c3)cs2)CC1` [compound 97, 2,6-dimethoxy-N-(4-methoxy-6-(2-(4-propioloylpiperazin-1-yl)thiazol-4-yl)benzo[d]isoxazol-3-yl)benzenesulfonamide]: the IC50 is no more than 10 µM.

For `C#CC(=O)N1CCN(c2cccc(-c3cc(OC)c4c(NS(=O)(=O)c5cc(CC)ccc5OC)noc4c3)c2)CC1` [compound 98, 5-ethyl-2-methoxy-N-(4-methoxy-6-(3-(4-propioloylpiperazin-1-yl)phenyl)benzo[d]isoxazol-3-yl) benzenesulfonamide], the IC50 was no more than 10 µM.

With `C#CC(=O)N1Cc2cnn(Cc3cc(OC)c4c(NS(=O)(=O)c5cc(CC)ccc5OC)noc4c3)c2C1` [compound 99, 5-ethyl-2-methoxy-N-(4-methoxy-6-((5-propioloyl-5,6-dihydropyrrolo[3,4-c]pyrazol-1(4H)-yl)methyl)benzo[d]isoxazol-3-yl)benzenesulfonamide], the IC50 was no more than 10 µM.

With `C#CC(=O)N1CCCN(c2cccc(-c3cc(OC)c4c(NS(=O)(=O)c5c(OC)cccc5OC)noc4c3)c2)CC1` [compound 100, 2,6-dimethoxy-N-(4-methoxy-6-(3-(4-propioloyl-1,4-diazepan-1-yl)phenyl)benzo[d]isoxazol-3-yl)benzenesulfonamide], the IC50 was no more than 10 µM.

On to `C#CC(=O)N1CCC(c2cccc(-c3cc(OC)c4c(NS(=O)(=O)c5c(OC)cccc5OC)noc4c3)c2)CC1` [compound 101, 2,6-dimethoxy-N-(4-methoxy-6-(3-(1-propioloylpiperidin-4-yl)phenyl)benzo[d]isoxazol-3-yl) benzenesulfonamide], for which the IC50 was no more than 10 µM.

Consider `C#CC(=O)N1CCN(c2cnc(-c3cc(OC)c4c(NS(=O)(=O)c5c(OC)cccc5OC)noc4c3)s2)CC1` [compound 102, 2,6-dimethoxy-N-(4-methoxy-6-(5-(4-propioloylpiperazin-1-yl)thiazol-2-yl)benzo[d]isoxazol-3-yl)benzenesulfonamide], for which the 50% inhibitory concentration (IC50) was no more than 10 µM.

With `C#CC(=O)N1CCN(c2ccnc(-c3cc(C)cc(C(=O)NNS(=O)(=O)c4ccccc4F)c3)c2)CC1` [compound 103, 2-fluoro-N′-(3-methyl-5-(4-(4-propioloylpiperazin-1-yl)pyridin-2-yl)benzoyl) benzenesulfonohydrazide], the IC50 is no more than 10 µM.
